Test results from US11077090B2, “Compounds and compositions and uses thereof” (Sunovion Pharmaceuticals Inc., priority 2016, dated 2021).
Like-named read-outs stand apart in the source and are kept apart here.

Tested on: compound-treated mice
Experiment: Neuropharmacological assay (SmartCube): behavioral activity signature and minimal effective dose
Format: in vivo
Conditions: for minimal effective dose: Mus musculus, ip; for AD: ADHD (probability of activity signature) / AG: analgesic (probability of activity signature) / AX: anxiolytic (probability of activity signature) / CE: cognitive enhancer (probability of activity signature) / DP: anti-depressant (probability of activity signature) / MS: mood stabilizer (probability of activity signature) / PS: anti-psychotic (probability of activity signature) / SD: sedative hypnotic (probability of activity signature) / UN: uncharacterized CNS activity (probability of activity signature): i.p. 15 min before test, most efficacious dose(s)
Procedure, shortened: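 Mice dosed i.p. 15 min before test, compound in N-methyl-2-pyrrolidone/PEG/propylene glycol, 3 doses; video-captured behavior matched to reference-drug signatures, giving per-class probabilities at most efficacious dose. MED from doses typically 0.3–30 mpk, defined as lowest dose with ≥50% total activity.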

[1] = MED = dose having 50% or more total activity, read-out: Potency: minimal effective dose (MED)
[2] = MED = dose having 50% or more total activity, read-out: Potency: minimal effective dose (MED), binned

Compound | minimal effective dose [1] | AD: ADHD (probability of activity signature) | AG: analgesic (probability of activity signature) | AX: anxiolytic (probability of activity signature) | CE: cognitive enhancer (probability of activity signature) | DP: anti-depressant (probability of activity signature) | MS: mood stabilizer (probability of activity signature) | PS: anti-psychotic (probability of activity signature) | SD: sedative hypnotic (probability of activity signature) | UN: uncharacterized CNS activity (probability of activity signature) | minimal effective dose [2] | Potency: minimal effective dose (MED), binned (MED = dose having 50% or more total activity) | MS: mood stabilizer (probability of activity signature) (hydrochloride) | SD: sedative hypnotic (probability of activity signature) (hydrochloride)
C[C@H]1OCc2cccc(Cl)c2[C@@H]1N.Cl [Example 81] | < 3 mg/kg | + (LOQ ≤ + <5%) | ++ (5% ≤ ++ <25%) | +++ (25% ≤ +++ <50%) | ++ (5% ≤ ++ <25%) | ++ (5% ≤ ++ <25%) | + (LOQ ≤ + <5%) | ++ (5% ≤ ++ <25%) | ++ (5% ≤ ++ <25%) | +++ (25% ≤ +++ <50%) | – | – | – | –
CN(C)C1COCc2ccccc21.Cl (stereo not drawn) [Example 60, N,N-dimethylisochroman-4-amine hydrochloride] | 10 to 30 mg/kg | + (LOQ ≤ + <5%) | ++ (5% ≤ ++ <25%) | +++ (25% ≤ +++ <50%) | ++ (5% ≤ ++ <25%) | ++ (5% ≤ ++ <25%) | + (LOQ ≤ + <5%) | ++ (5% ≤ ++ <25%) | + (LOQ ≤ + <5%) | + (LOQ ≤ + <5%) | – | – | – | –
CN[C@H]1COCc2ccc(Cl)c(Cl)c21 [Example 148] | 3 to 10 mg/kg | + (LOQ ≤ + <5%) | ++ (5% ≤ ++ <25%) | ++ (5% ≤ ++ <25%) | ++ (5% ≤ ++ <25%) | ++ (5% ≤ ++ <25%) | ++ (5% ≤ ++ <25%) | ++ (5% ≤ ++ <25%) | ++ (5% ≤ ++ <25%) | +++ (25% ≤ +++ <50%) | – | – | – | –
CC[C@H]1OCc2ccc(C)cc2[C@@H]1N.Cl (relative stereo) [Example 99, trans-3-Ethyl-6-methylisochroman-4-amine hydrochloride] | 3 to 10 mg/kg | + (LOQ ≤ + <5%) | ++ (5% ≤ ++ <25%) | +++ (25% ≤ +++ <50%) | ++ (5% ≤ ++ <25%) | ++ (5% ≤ ++ <25%) | + (LOQ ≤ + <5%) | ++ (5% ≤ ++ <25%) | + (LOQ ≤ + <5%) | +++ (25% ≤ +++ <50%) | – | – | – | –
Cc1ccc2c(c1C)[C@H](N)[C@@H](C)OC2.Cl [Example 79] | 3 to 10 mg/kg | + (LOQ ≤ + <5%) | ++ (5% ≤ ++ <25%) | +++ (25% ≤ +++ <50%) | ++ (5% ≤ ++ <25%) | ++ (5% ≤ ++ <25%) | + (LOQ ≤ + <5%) | ++ (5% ≤ ++ <25%) | ++ (5% ≤ ++ <25%) | ++ (5% ≤ ++ <25%) | – | – | – | –
CC[C@@H]1OCc2ccc(C)cc2[C@@H]1N (single isomer, unassigned) [Example 179] | – | + (LOQ ≤ + <5%) | + (LOQ ≤ + <5%) | ++ (5% ≤ ++ <25%) | ++ (5% ≤ ++ <25%) | +++ (25% ≤ +++ <50%) | + (LOQ ≤ + <5%) | ++ (5% ≤ ++ <25%) | + (LOQ ≤ + <5%) | ++++ (50% ≤ ++++) | < 3 mg/kg | – | – | –
C[C@H]1OCc2cc(F)ccc2[C@@H]1N.Cl (single isomer, unassigned) [Example 213] | – | + (LOQ ≤ + <5%) | ++ (5% ≤ ++ <25%) | ++ (5% ≤ ++ <25%) | ++ (5% ≤ ++ <25%) | ++ (5% ≤ ++ <25%) | + (LOQ ≤ + <5%) | ++ (5% ≤ ++ <25%) | + (LOQ ≤ + <5%) | +++ (25% ≤ +++ <50%) | 3 to 10 mg/kg | – | – | –
Cc1ccc2c(c1C)C(NCCO)COC2.Cl (stereo not drawn) [Example 56] | 10 to 30 mg/kg | + (LOQ ≤ + <5%) | +++ (25% ≤ +++ <50%) | ++ (5% ≤ ++ <25%) | ++ (5% ≤ ++ <25%) | ++ (5% ≤ ++ <25%) | + (LOQ ≤ + <5%) | + (LOQ ≤ + <5%) | + (LOQ ≤ + <5%) | + (LOQ ≤ + <5%) | – | – | – | –
Cl.NC1COCc2ccc3c(c21)C1CCC3C1 (single isomer, unassigned) [Example 163] | – | + (LOQ ≤ + <5%) | ++ (5% ≤ ++ <25%) | ++ (5% ≤ ++ <25%) | ++ (5% ≤ ++ <25%) | ++ (5% ≤ ++ <25%) | + (LOQ ≤ + <5%) | +++ (25% ≤ +++ <50%) | ++ (5% ≤ ++ <25%) | +++ (25% ≤ +++ <50%) | – | B (>3 to 10 mpk) | – | –
CC(C)[C@@H]1OCc2ccccc2[C@H]1N.Cl (relative stereo) [Example 257, trans-3-Isopropylisochroman-4-amine hydrochloride] | – | + (LOQ ≤ + <5%) | + (LOQ ≤ + <5%) | + (LOQ ≤ + <5%) | + (LOQ ≤ + <5%) | ++ (5% ≤ ++ <25%) | – | ++ (5% ≤ ++ <25%) | – | ++ (5% ≤ ++ <25%) | 3 to 10 mg/kg | – | ++ (5% ≤ ++ <25%) | +++ (25% ≤ +++ <50%)
CCN(C)C(=O)Oc1ccc2c(c1)[C@H](N)[C@@H](C)OC2.Cl [Example 282] | – | + (LOQ ≤ + <5%) | + (LOQ ≤ + <5%) | + (LOQ ≤ + <5%) | + (LOQ ≤ + <5%) | + (LOQ ≤ + <5%) | + (LOQ ≤ + <5%) | + (LOQ ≤ + <5%) | ++ (5% ≤ ++ <25%) | + (LOQ ≤ + <5%) | > 30 mg/kg | – | – | –
Cl.NC1COCc2c(F)cccc21 (stereo not drawn) [Example 23] | 10 to 30 mg/kg | + (LOQ ≤ + <5%) | ++ (5% ≤ ++ <25%) | +++ (25% ≤ +++ <50%) | ++ (5% ≤ ++ <25%) | ++ (5% ≤ ++ <25%) | + (LOQ ≤ + <5%) | ++ (5% ≤ ++ <25%) | + (LOQ ≤ + <5%) | ++ (5% ≤ ++ <25%) | – | – | – | –
